“Also recorded” adds a separate entry of the source.
Assay: Determination of hydrotrope utility (polarized light microscopy and rheology of compound/water/monoolein compositions)
Assay type: physicochemical
Conditions: for Formation of cubic phase in equilibrium with liquid water: system of compound, monoolein and water
Source text: Whether a compound is suitable to use as ingredient (A) can be determined by one skilled in the art without undue experimentation. The determination can be made by preparing a composition comprising the compound to be tested for use as the hydrotrope, the selected amphiphile, and the selected solvent and allowing the composition to equilibrate, for example, by the method described below in Reference Example 1. If the composition forms a cubic phase or cubic phase in combination with another phase, then the hydrotrope is suitable to use in this invention. If the composition forms a cubic phase or cubic phase in combination with an isotropic liquid, then the hydrotrope is preferred.
Polarized light microscopy (PLM) can be used to determine whether the composition formed cubic phase. PLM can be carried out on a polarized light microscope or constructed light box, as described by Laughlin, R. G., J. Colloid Interface Sci., 55, 239-242 (1976). Polarized light microscope textures define the phase/colloidal state of sample. Lamellar and hexagonal phases give birefringence (see Hecht, E., Optics, 2nd ed., Addison-Wesley Publishing Co., Reading, Mass., pp. 282-289 (1984)) and distinct textures such as Maltese Crosses (see Rosevear, F. B., J. Am. Oil Chemists Soc., 31, 628-638 (1954)). This is a consequence of the anisotropic phase structure of these particular phases, and their orientation relative to polarization of the light. However, L1, L2, L3, and cubic phases show no birefringence and appear dark in the microscope. Birefringence is a function of sample thickness, so sometimes it is difficult to see with a light microscope. Instead, the bulk sample can be placed in the aforementioned light box to secure a very thick sample.
Cubic phases are very viscous while the other phases are (i.e., L1, L2, and L3) are less viscous, like water. Therefore, lack of birefringence in combination with bulk solid-like rheological properties indicates the presence of cubic phase.
A compound for use as a hydrotrope is dissolved in water in amounts to form a hydrotrope solution. The solution is added to monoolein (DIMODAN® MO90K) to yield a composition. The composition is left to equilibrate overnight at a temperature of 25 to 30° C.
PLM can be carried out on a polarized light microscope or constructed light box, as described by Laughlin, R. G., J. Colloid Interface Sci., 55, 239-242 (1976). Rheological properties of the composition are also observed.
Various compounds are evaluated according to Reference Example 1. The compounds, the compositions prepared, and the results are in Table E1, below. FIG. 4 is a ternary diagram 400 showing the data points in Example 3. FIG. 5 is a ternary diagram 500 for 1,2-hexanediol 516, monoolein 517, and water 518. […] FIG. 6 is a ternary diagram 600 for 1,2-hexanediol 613, monoolein 614, and water 615. […] FIG. 7 is a ternary diagram 700 for ethanol 713, monoolein 714, and water 715.

[1] = system with monoolein and water
[2] = compound 10, water 80, amphiphile (monoolein) 10 (κ)

## CCCCC(O)CO (stereo not shown) [1,2-hexanediol]
FIG. 5 point 501, compound 10, water 81, amphiphile (monoolein) 9 (κ)
  Phase(s) Formed: liquid water and L1
FIG. 5 point 502, compound 10, water 71, amphiphile (monoolein) 19 (κ)
  Phase(s) Formed: L1 and lamellar
FIG. 5 point 503, compound 10, water 64, amphiphile (monoolein) 26 (κ)
  Phase(s) Formed: L1 and lamellar
FIG. 5 point 504, compound 12, water 53, amphiphile (monoolein) 35 (κ)
  Phase(s) Formed: L1 and lamellar
FIG. 5 point 505, compound 10, water 45, amphiphile (monoolein) 45 (κ)
  Phase(s) Formed: L1 and lamellar
FIG. 5 point 510, compound 20, water 40, amphiphile (monoolein) 40 (κ)
  Phase(s) Formed: L1 and lamellar
FIG. 6 point 601, compound 6, water 56, amphiphile (monoolein) 38 (κ)
  Phase(s) Formed: cubic and lamellar
FIG. 6 point 602, compound 4, water 58, amphiphile (monoolein) 38 (κ)
  Phase(s) Formed: cubic and lamellar
FIG. 6 point 603, compound 2, water 59, amphiphile (monoolein) 39 (κ)
  Phase(s) Formed: cubic and lamellar
FIG. 6 point 604, compound 6, water 38, amphiphile (monoolein) 56 (κ)
  Phase(s) Formed: cubic and lamellar
FIG. 6 point 605, compound 4, water 39, amphiphile (monoolein) 57 (κ)
  Phase(s) Formed: cubic and lamellar
FIG. 6 point 606, compound 2, water 39, amphiphile (monoolein) 59 (κ)
  Phase(s) Formed: cubic and lamellar
FIG. 6 point 607, compound 6, water 28, amphiphile (monoolein) 66 (κ)
  Phase(s) Formed: cubic and lamellar
FIG. 6 point 608, compound 2, water 29, amphiphile (monoolein) 69 (κ)
  Phase(s) Formed: cubic and lamellar
FIG. 6 point 609, compound 16, water 13, amphiphile (monoolein) 71 (κ)
  Phase(s) Formed: lamellar
FIG. 6 point 610, compound 10, water 14, amphiphile (monoolein) 76 (κ)
  Phase(s) Formed: lamellar
FIG. 6 point 611, compound 5, water 14, amphiphile (monoolein) 81 (κ)
  Phase(s) Formed: lamellar
FIG. 6 point 612, compound 5, water 12, amphiphile (monoolein) 83 (κ)
  Phase(s) Formed: lamellar
  Formation of cubic phase in equilibrium with liquid water: does not form cubic phase in equilibrium with liquid water
[1]
  Suitability as hydrotrope: suitable to use as a hydrotrope

## OCCCCO [1,4-butanediol]
[2]
  Phase(s) Formed: cubic and L1
[1]
  Suitability as hydrotrope: effective as hydrotropes

## CC(C)O [Example 2-propanol, 2-propanol]
[2]
  Phase(s) Formed: does not form cubic phase; also recorded: Turbid solution and L1
[1]
  Suitability as hydrotrope: not preferred to use as a hydrotrope

## CCN(CC)CCOC(=O)c1ccc(N)cc1.Cl [procaine hydrogen chloride, reference compound]
[2]
  Phase(s) Formed: cubic and L1
[1]
  Suitability as hydrotrope: effective as hydrotropes

## CCO [ethanol]
FIG. 4 point 401, compound 20, water 48, amphiphile (monoolein) 32 (κ)
  Phase(s) Formed: L1 and lamellar
FIG. 4 point 404, compound 9, water 55, amphiphile (monoolein) 36 (κ)
  Phase(s) Formed: cubic and lamellar
FIG. 4 point 405, compound 6, water 56, amphiphile (monoolein) 38 (κ)
  Phase(s) Formed: cubic and lamellar
FIG. 7 point 701, compound 11, water 88, amphiphile (monoolein) 1 (κ)
  Phase(s) Formed: cubic & isotropic liquid
FIG. 7 point 702, compound 10, water 70, amphiphile (monoolein) 20 (κ)
  Phase(s) Formed: cubic & isotropic liquid
FIG. 7 point 703, compound 10, water 59, amphiphile (monoolein) 31 (κ)
  Phase(s) Formed: cubic & isotropic liquid
FIG. 7 point 704, compound 10, water 48, amphiphile (monoolein) 42 (κ)
  Phase(s) Formed: cubic & isotropic liquid
FIG. 7 point 706, compound 20, water 55, amphiphile (monoolein) 25 (κ)
  Phase(s) Formed: L1 and lamellar
FIG. 7 point 707, compound 19, water 49, amphiphile (monoolein) 32 (κ)
  Phase(s) Formed: L1 and lamellar
FIG. 7 point 708, compound 20, water 42, amphiphile (monoolein) 39 (κ)
  Phase(s) Formed: lamellar
FIG. 7 point 709, compound 29, water 60, amphiphile (monoolein) 11 (κ)
  Phase(s) Formed: L1 and lamellar
FIG. 7 point 710, compound 28, water 52, amphiphile (monoolein) 20 (κ)
  Phase(s) Formed: L1 and lamellar
FIG. 7 point 711, compound 30, water 40, amphiphile (monoolein) 30 (κ)
  Phase(s) Formed: lamellar
FIG. 7 point 712, compound 30, water 29, amphiphile (monoolein) 41 (κ)
  Phase(s) Formed: lamellar
  Formation of cubic phase in equilibrium with liquid water: can be formed
[1]
  Suitability as hydrotrope: preferred hydrotrope
System with monoolein and water, % of the system
  Amount of compound at which it can be used as a hydrotrope: less than or equal to 10%

— patent US6773627B2, “Cubic liquid crystalline compositions and methods for their preparation” (Children's Hospital Research Foundation, priority 2000, dated 2004)
